Laboratory results reported in PubChem BioAssay AID2060898 (Molecular Pharmacology Branch, DTP, NCI, 2025).

Tested on: 616215-338-R-J1-PDC complex spheroid viability
Test: Anticancer human tumor 616215-338-R-J1-PDC patient-derived colon adenocarcinoma cell line growth inhibition [RAS]
Details: for IC50: curve of first compound; for viability, T/C: stronger effect = lower value
Summary of the method: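 Agents were tested in combination matrices in half-log decrements from a top concentration at or near clinical Cmax (10 microM if undetermined). Targets were multi-cell spheroids of tumour lines plus HUVEC and MSC stromal cells.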

[1] = second compound 0.0316 µM, first compound 0.0316 µM
[2] = second compound 0.0316 µM, first compound 0.1 µM
[3] = second compound 0.0316 µM, first compound 0.316 µM
[4] = second compound 0.0316 µM, first compound 1 µM
[5] = second compound 0.1 µM, first compound 0.0316 µM
[6] = second compound 0.1 µM, first compound 0.1 µM
[7] = second compound 0.1 µM, first compound 0.316 µM
[8] = second compound 0.1 µM, first compound 1 µM
[9] = second compound 0.316 µM, first compound 0.0316 µM
[10] = second compound 0.316 µM, first compound 0.1 µM
[11] = second compound 0.316 µM, first compound 0.316 µM
[12] = second compound 0.316 µM, first compound 1 µM
[13] = second compound 1 µM, first compound 0.0316 µM
[14] = second compound 1 µM, first compound 0.1 µM
[15] = second compound 1 µM, first compound 0.316 µM
[16] = second compound 1 µM, first compound 1 µM
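Note: spheroids exposed to agents for seven days before viability readout.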
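Throughout, for viability, T/C: 100% = DMSO vehicle control viability.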

Structure (SMILES): CCN1CCN(Cc2ccc(Nc3ncc(F)c(-c4cc(F)c5nc(C)n(C(C)C)c5c4)n3)nc2)CC1 + C=CC(=O)N1CCN(c2nc(OCC3CCCN3C)nc3c(F)c(-c4nc(N)cc(C)c4C(F)(F)F)c(Cl)cc23)C(C)C1
- IC50 (second compound 0.00316 µM): > 1000 nM
- IC50 (second compound 0.01 µM): > 1000 nM
- IC50 (second compound 0.0316 µM): > 1000 nM
- IC50 (second compound 0.1 µM): > 1000 nM
- IC50 (second compound 0.316 µM): > 1000 nM
- IC50 (second compound 1 µM): > 1000 nM
- viability, T/C (second compound 0.00316 µM, first compound 0.00316 µM): 110%
- viability, T/C (second compound 0.00316 µM, first compound 0.01 µM): 110%
- viability, T/C (second compound 0.00316 µM, first compound 0.0316 µM): 121%
- viability, T/C (second compound 0.00316 µM, first compound 0.1 µM): 118%
- viability, T/C (second compound 0.00316 µM, first compound 0.316 µM): 150%
- viability, T/C (second compound 0.00316 µM, first compound 1 µM): 65%
- viability, T/C (second compound 0.01 µM, first compound 0.00316 µM): 112%
- viability, T/C (second compound 0.01 µM, first compound 0.01 µM): 120%
- viability, T/C (second compound 0.01 µM, first compound 0.0316 µM): 114%
- viability, T/C (second compound 0.01 µM, first compound 0.1 µM): 123%
- viability, T/C (second compound 0.01 µM, first compound 0.316 µM): 145%
- viability, T/C (second compound 0.01 µM, first compound 1 µM): 56.2%
- viability, T/C (second compound 0.0316 µM, first compound 0.00316 µM): 113%
- viability, T/C (second compound 0.0316 µM, first compound 0.01 µM): 124%
- viability, T/C [1]: 116%
- viability, T/C [2]: 119%
- viability, T/C [3]: 143%
- viability, T/C [4]: 71.4%
- viability, T/C (second compound 0.1 µM, first compound 0.00316 µM): 102%
- viability, T/C (second compound 0.1 µM, first compound 0.01 µM): 102%
- viability, T/C [5]: 118%
- viability, T/C [6]: 117%
- viability, T/C [7]: 141%
- viability, T/C [8]: 64.2%
- viability, T/C (second compound 0.316 µM, first compound 0.00316 µM): 114%
- viability, T/C (second compound 0.316 µM, first compound 0.01 µM): 109%
- viability, T/C [9]: 113%
- viability, T/C [10]: 131%
- viability, T/C [11]: 131%
- viability, T/C [12]: 59.3%
- viability, T/C (second compound 1 µM, first compound 0.00316 µM): 117%
- viability, T/C (second compound 1 µM, first compound 0.01 µM): 116%
- viability, T/C [13]: 109%
- viability, T/C [14]: 120%
- viability, T/C [15]: 154%
- viability, T/C [16]: 67.7%

Structure (SMILES): NC1c2ccccc2OC12CCN(c1cnc3c(N4CCCc5ncccc54)n[nH]c3n1)CC2 (centres undefined) + C#Cc1c(F)ccc2cc(O)cc(-c3ncc4c(N5CC6CCC(C5)N6)nc(OCC56CCCN5CC(F)C6)nc4c3F)c12
- IC50 (second compound 0.0316 µM): 4630 nM
- IC50 (second compound 0.1 µM): 4730 nM
- IC50 (second compound 0.316 µM): 1970 nM
- IC50 (second compound 1 µM): 198 nM
- IC50 (second compound 3.16 µM): 34.7 nM
- IC50 (second compound 10 µM): < 31.6 nM
- viability, T/C [1]: 128%
- viability, T/C [2]: 112%
- viability, T/C [3]: 75.9%
- viability, T/C [4]: 81.6%
- viability, T/C (second compound 0.0316 µM, first compound 3.16 µM): 67.6%
- viability, T/C (second compound 0.0316 µM, first compound 10 µM): 29.6%
- viability, T/C [5]: 123%
- viability, T/C [6]: 105%
- viability, T/C [7]: 88.5%
- viability, T/C [8]: 61.8%
- viability, T/C (second compound 0.1 µM, first compound 3.16 µM): 56.6%
- viability, T/C (second compound 0.1 µM, first compound 10 µM): 43.4%
- viability, T/C [9]: 114%
- viability, T/C [10]: 84.4%
- viability, T/C [11]: 63.2%
- viability, T/C [12]: 55.1%
- viability, T/C (second compound 0.316 µM, first compound 3.16 µM): 49.2%
- viability, T/C (second compound 0.316 µM, first compound 10 µM): 32.4%
- viability, T/C [13]: 88.6%
- viability, T/C [14]: 59.5%
- viability, T/C [15]: 43%
- viability, T/C [16]: 33.8%
- viability, T/C (second compound 1 µM, first compound 3.16 µM): 43%
- viability, T/C (second compound 1 µM, first compound 10 µM): 26.6%
- viability, T/C (second compound 3.16 µM, first compound 0.0316 µM): 50.5%
- viability, T/C (second compound 3.16 µM, first compound 0.1 µM): 44.5%
- viability, T/C (second compound 3.16 µM, first compound 0.316 µM): 50.7%
- viability, T/C (second compound 3.16 µM, first compound 1 µM): 39%
- viability, T/C (second compound 3.16 µM, first compound 3.16 µM): 35.6%
- viability, T/C (second compound 3.16 µM, first compound 10 µM): 35.7%
- viability, T/C (second compound 10 µM, first compound 0.0316 µM): 40%
- viability, T/C (second compound 10 µM, first compound 0.1 µM): 44.4%
- viability, T/C (second compound 10 µM, first compound 0.316 µM): 36.2%
- viability, T/C (second compound 10 µM, first compound 1 µM): 29.5%
- viability, T/C (second compound 10 µM, first compound 3.16 µM): 33.4%
- viability, T/C (second compound 10 µM, first compound 10 µM): 31.6%
